Patent publication US11319289B2, “5-hydroxy pyridine-based compound for use as P2X1 and P2X3 receptor antagonist and pharmaceutical composition comprising same” (GWANGJU INSTITUTE OF SCIENCE AND TECHNOLOGY, priority 2017, dated 2022)

Experiments:
[1] = tested on: CIPN rats (mechanical allodynia); assay: Antiallodynic effect (von Frey) in chemotherapy-induced peripheral neuropathy (CIPN) rats; assay type: in vivo; settings: Rattus norvegicus, intravenous administration
Method: 3-1. Evaluation of In Vivo Efficacy
The antiallodynic effects (mechanical allodynia) were evaluated using rats according to a previously reported protocol. In order to evaluate the withdrawal threshold, rats (naive, SNL and CIPN) were placed on a plastic mesh floor of individual plastic cages. The rats were allowed to acclimate to the environment for 30 minutes and examined after intrathecal or intravenous administration to the caudal vein. The control group received the same volume of vehicle (intrathecal administration of saline or DMSO, intravenous administration of DMSO:PEG:PBS=1:6:3 v/v %) as the experimental groups. Evaluation of the mechanical withdrawal threshold was measured in responses to the application of calibrated von Frey filaments (Stoelting, Wood Dale, Ill., USA) to the hind paw of the rats through the holes on the mesh floor underneath the cage using the ‘up and down method’. A series of eight von Frey filaments (0.4, 0.7, 1.2, 2.0, 3.6, 5.5, 8.5, and 15 g) was applied perpendicular to the sole of the hind paw for 5 seconds while the head was bent. Active withdrawal or flinching of the paw was considered as a positive reaction. The absence of response in the rats, when a pressure was applied to 15 g von Frey filament, was used as a cut-off value. Only rats with definite allodynia (i.e., mechanical withdrawal threshold: less than 4 g after SNL or less than 5 g after CIPN) were tested. The rats after termination of the experiments were euthanized through an overdose of sevoflurane. The withdrawal threshold data for the von Frey filament test was calculated as % MPE (maximum possible effect) based on the following Calculation Equation: % MPE=[(Post-drug threshold−Post-injured baseline threshold)/(Cutoff threshold−post-injured baseline threshold)×100]. Dose-response data were analyzed using Scheffe's post hoc test and one-way analysis of variance (ANOVA).

CYP450 3A4 = target: T1, CYP450 3A4 (Homo sapiens, UniProt P08684); assay: CYP inhibition assay (Vivid fluorometric), 3A4; assay type: biochemical; settings: 1 μM in Table 5
T1 construct: purchased Invitrogen
Method: (§1) CYP450 (1A2, 2C9, 3A4) enzyme assay was performed by a fluorometric assay using a Vivid® CYP450 screening kit (Invitrogen, USA, CA) in a 96-well black plate according to manufacturer's instructions with some modifications. The assay was performed at room temperature, and the final assay volume was 100 μL. […]
(§2) A master pre-mixture (enzyme (0.5 nmol recombinant human CYP450 enzyme)/NADP regeneration solution (333 mM glucose-6-phosphate dissolved, 30 U/mL glucose-6-phosphate dehydrogenase in 100 mM KH2PO4 solution at pH 8.0)) was prepared as a CYP450 reaction buffer (200 mM KH2PO4, pH 8.0). The master pre-mixture was added to each well of the 96 well plate, followed by the vehicle DMSO (control) and test compounds, and the mixture was preincubated for 10 minutes in the plate for background reading. Subsequently, the enzyme reaction was immediately initiated through the addition of CYP450 substrate/NADP^+ mixture. After incubation for 40 minutes, the fluorescence of the product was measured with a CHAMELEON™ multi-technology plate reader (2C9, 3A4: excitation wavelength of 530 nm and emission wavelength of 590 nm, 1A2: excitation wavelength of 415 nm and emission wavelength of 460 nm). The effect of the test compounds on CYP450 (1A2, 2C9, 3A4) was expressed as the percentage of enzyme activity.

CYP450 2C9 = target: T2, CYP450 2C9 (Homo sapiens, UniProt P11712); assay: CYP inhibition assay (Vivid fluorometric), 2C9; assay type: biochemical; settings: 1 μM in Table 5
T2 construct: purchased Invitrogen
Method: as §1, §2

CYP1A2 = target: T3, CYP1A2 (Homo sapiens, UniProt P05177); assay: CYP inhibition assay (Vivid fluorometric), 1A2; assay type: biochemical; settings: human, recombinant human CYP1A2, pH 8; 1 μM in Table 5; read-out: CYP450 inhibition, 1A2 isozyme
T3 construct: purchased Invitrogen
T3 sequence (P05177 1-516): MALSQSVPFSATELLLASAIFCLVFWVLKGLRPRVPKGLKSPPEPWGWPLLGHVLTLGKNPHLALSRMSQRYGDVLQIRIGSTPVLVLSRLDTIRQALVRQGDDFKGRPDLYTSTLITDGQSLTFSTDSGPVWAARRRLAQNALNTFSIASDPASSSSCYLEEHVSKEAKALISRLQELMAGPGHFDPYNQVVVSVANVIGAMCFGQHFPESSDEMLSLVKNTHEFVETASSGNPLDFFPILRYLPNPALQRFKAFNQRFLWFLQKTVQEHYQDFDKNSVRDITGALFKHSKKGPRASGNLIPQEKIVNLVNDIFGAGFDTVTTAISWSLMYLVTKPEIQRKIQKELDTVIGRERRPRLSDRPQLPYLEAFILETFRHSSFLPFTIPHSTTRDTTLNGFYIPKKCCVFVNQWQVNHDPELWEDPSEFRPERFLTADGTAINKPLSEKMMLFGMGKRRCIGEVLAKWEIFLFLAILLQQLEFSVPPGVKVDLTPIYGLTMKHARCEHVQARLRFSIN
Method: as §1, §2

CYP450 1A2 = target: T4, CYP450 1A2 (Homo sapiens, UniProt P05177); assay: CYP inhibition assay (Vivid fluorometric), 1A2; assay type: biochemical; settings: 1 μM in Table 5
T4 construct: purchased Invitrogen
T4 sequence (P05177 1-516): T3 sequence (P05177 1-516)
Method: as §1, §2

T1 sequence (P08684 whole entry): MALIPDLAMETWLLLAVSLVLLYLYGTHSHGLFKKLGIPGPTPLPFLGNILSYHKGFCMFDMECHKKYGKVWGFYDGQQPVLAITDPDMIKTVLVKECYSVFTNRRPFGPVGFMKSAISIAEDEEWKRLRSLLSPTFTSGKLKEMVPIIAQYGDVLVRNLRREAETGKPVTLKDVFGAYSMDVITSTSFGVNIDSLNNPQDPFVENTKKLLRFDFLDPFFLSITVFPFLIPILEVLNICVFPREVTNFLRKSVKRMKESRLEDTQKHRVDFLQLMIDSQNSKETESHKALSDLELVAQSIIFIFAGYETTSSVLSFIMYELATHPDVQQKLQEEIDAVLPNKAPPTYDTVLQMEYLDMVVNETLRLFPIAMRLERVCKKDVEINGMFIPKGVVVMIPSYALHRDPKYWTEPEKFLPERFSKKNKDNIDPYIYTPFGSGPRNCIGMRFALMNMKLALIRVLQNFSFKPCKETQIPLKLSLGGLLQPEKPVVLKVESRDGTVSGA
T2 sequence (P11712 whole entry): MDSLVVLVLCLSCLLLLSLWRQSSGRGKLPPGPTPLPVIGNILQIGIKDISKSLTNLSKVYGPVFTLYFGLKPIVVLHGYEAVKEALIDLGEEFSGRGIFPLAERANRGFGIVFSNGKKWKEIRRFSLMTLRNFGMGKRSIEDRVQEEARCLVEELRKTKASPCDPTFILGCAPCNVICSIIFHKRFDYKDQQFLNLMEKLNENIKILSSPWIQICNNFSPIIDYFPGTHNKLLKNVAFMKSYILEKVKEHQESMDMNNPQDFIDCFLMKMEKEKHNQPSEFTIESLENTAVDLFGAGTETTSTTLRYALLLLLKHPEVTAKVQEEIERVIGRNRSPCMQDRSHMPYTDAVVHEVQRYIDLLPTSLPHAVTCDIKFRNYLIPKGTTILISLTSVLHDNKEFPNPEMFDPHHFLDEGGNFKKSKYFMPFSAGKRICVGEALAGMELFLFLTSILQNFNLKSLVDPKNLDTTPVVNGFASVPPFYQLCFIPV

CYP450 inhibition, 3A4 isozyme (CYP450 3A4) | CYP450 inhibition, 2C9 isozyme (CYP450 2C9) | inhibition at 40 min, 1 µM (CYP1A2) [%] | CYP450 inhibition, 1A2 isozyme (CYP450 1A2) | SMILES | ED50 [1] [mg/kg]
 |  |  |  | CCCc1nc(Cc2cccc(Oc3ccccc3)c2)c(C)c(C(=O)OC)c1O [Compound 28, Methyl 3-hydroxy-5-methyl-6-(3-phenoxybenzyl)-2-propylisonicotinate] | 2.93
weak inhibitory effect | weak inhibitory effect | 36 ± 3 | weak inhibitory effect | CCCc1nc(Cc2cccc(Oc3ccccc3)c2)c(C)c(C(=O)O)c1O [Compound 29, 3-Hydroxy-5-methyl-6-(3-phenoxybenzyl)-2-propylisonicotinic acid] | 
